Consider four molecules from patent US20080132529A1, “Method of improving bioavailability for non-sedating barbiturates” (priority 2006, published 2008).

As a reminder, the half-life is the time needed for the level to fall by half in the phase considered.

For data set [1], the system named is electroshock and chemoconvulsive seizures. The following applies: animal studies; at doses which exhibited no neurological impairment; cited from earlier work.
The nature of data set [2]: Early pharmacokinetic studies in dogs, high fat meal vs customary dog food. The format is in vivo.
Data set [3] can be described thus: Phase I food-effect crossover pharmacokinetic study, single 400 mg oral dose of T2000 (DMMDPB), fasting vs fed. The following applies: for Rate and extent of absorption when administered after a high fat, high calorie breakfast: fed vs fasting; for Rate and extent of absorption when administered after a high fat, high calorie breakfast / AUC(0-inf) / Cmax / half-life / Tmax / AUC0-t Ratio (Fasting/Fed) / T1/2 Ratio (Fasting/Fed) / Tmax Ratio (Fasting/Fed) / Cmax Ratio (Fasting/Fed) / AUC0-∞ Ratio (Fasting/Fed): single 400 mg oral dose of DMMDPB; for AUC(0-t) / AUC(0-inf) / Cmax / half-life / Tmax: male, human, plasma, po, 400 mg; for AUC(0-t): AUC0-t, plasma analyte after single 400 mg oral dose of DMMDPB; for AUC(0-t) / Cmax / Tmax / AUC0-t Ratio (Fasting/Fed) / Cmax Ratio (Fasting/Fed): n=23; for AUC(0-t) / AUC(0-inf): least-squares geometric mean; for AUC(0-inf): AUC0-∞; for AUC(0-inf) / half-life / AUC0-∞ Ratio (Fasting/Fed): n=18 for DMMDPB, n=20 for MMMDPB; for half-life / Tmax: arithmetic mean; for AUC0-t Ratio (Fasting/Fed): ratio fasting/fed of geometric means. The procedure:
This was a single center, randomized, single dose, open-label, 2-way, food-effect crossover study to compare the rate and extent of absorption of T2000, administered as 4×100 mg capsules (for a total dose of 400 mg), under fasting and fed conditions. Subjects were confined to a clinical research facility from at least 11 hours prior to drug administration until after the 72.0-hour post-dose blood draw, in each period. Single oral doses were separated by a washout period of at least 21 days.
All subjects met the inclusion and exclusion criteria described in the protocol and were judged eligible for the study, based on medical history, demographic data (including sex, age, body weight [kg], height [cm], and BMI [kg/m2], medication history, physical examination, vital signs (blood pressure, respiratory rate, heart rate, and oral temperature), 12-lead ECG, brief neurological examination (including assessment of mental status, orientation, memory, arithmetic and spelling, eye movement, gait and coordination), opthalmology examination (lamp examination; performed within 3 months prior to the first dose), and clinical laboratory tests (hematology, biochemistry, urinalysis, HIV and hepatitis C [HCV] antibodies, and hepatitis B antigen [HBsAg]). […] Screening procedures took place within 28 days prior to Period 1 drug administration.
Subjects abstained from food or drink containing xanthine derivatives or xanthine-related compounds (e.g. coffee, tea, caffeine-containing sodas, colas, chocolate, or decaffeinated products) and energy drinks from 48 hours prior to drug administration, until the end of sample collection in each period; alcohol from 24 hours prior to drug administration, until the end of sample collection in each period, and grapefruit products (e.g. fresh, canned, or frozen); natural food supplements (including garlic as a supplement), and vitamins from 7 days prior to drug administration, until the end of sample collection in each period. Any subjects who felt dizzy or drowsy when they left the clinical facility were advised against performing activities requiring mental alertness, judgment, and physical coordination until they felt safe to do so.
Treatment A: The subjects fasted for at least 10 hours prior to drug administration.
Treatment B: After a supervised overnight fast of at least 10 hours, and 30 minutes before drug administration, subjects were served a standard high-fat, high-caloric breakfast of approximately 1000 calories (approximately 150 calories from protein, 250 calories from carbohydrates, and […]). […] Subjects were required to completely consume this breakfast within 30 minutes, and prior to drug administration. Subjects were dosed on the momrings of Apr. […] Subjects were administered the test or reference medication as a single oral dose of 4 capsules, each containing 100 mg of prodrug T2000 (total dose of 400 mg), with approximately 240 ml of water. Subjects were dosed as specified in the protocol, and subsequently fasted for a period of at least 4 hours. A mouth and hand check was performed to ensure the subjects had swallowed the study medication.
All blood samples were drawn into blood collection tubes (1×7 ml) containing EDTA K3 prior to drug administration and 0.500, 1.00, 2.00, 3.00, 4.00, 5.00, 6.00, 8.00, 10.0, 12.0, 15.0, 18.0, 24.0, 36.0, 48.0, 72.0, 96.0, and 120 hours post-dose in each period. All blood samples were collected via direct venipuncture.
Analysis of T-2000, MMMDPB and DPB were performed using High Performance Liquid Chromatographic Method with Tandem Mass. Spectrometry Detection. The analytical method was developed and validated.

The conditions of data set [4]: in vivo; cited from earlier work.
Setting [5] is: Fed (high-fat breakfast 30 min before dose).

Values joined by “and” are separate entries in the source; they are usually repeats but may differ in a detail not shown here. Identical values can stand only once.

With `COCN1C(=O)N(COC)C(=O)C(c2ccccc2)(c2ccccc2)C1=O` [DMMDPB, 1,3-dimethoxymethyl-5,5-diphenyl barbituric acid], the “Anticonvulsant activity against electroshock and chemoconvulsive seizures” value in data set [1] is “anticonvulsant properties”. In addition, in data set [2], the “Absorption with a high fat meal compared with customary dog food” value is reported as “more completely absorbed”. Also, in data set [3], the “Rate and extent of absorption when administered after a high fat, high calorie breakfast” value (shortened to “Rate and extent of absorption”) is on record as “increased”; the “AUC0-t Ratio (Fasting/Fed)” value is 35.6% and 35.57%; the “T1/2 Ratio (Fasting/Fed)” value is 141.55%; the “Tmax Ratio (Fasting/Fed)” value came to 154.34%. For the same molecule, in data set [3], the “Cmax Ratio (Fasting/Fed)” value is 14.6% and 14.58%; the “AUC0-∞ Ratio (Fasting/Fed)” value worked out at 49.46%. In addition, the AUC(0-t) in data set [3] (Fasting, healthy subjects) worked out at 3100 ng·h/mL. Further, the AUC(0-t) in data set [3] (setting [5]) was 8710 ng·h/mL. Besides, in data set [3] (Fasting), the AUC(0-inf) stood at 5320 ng·h/mL, the Cmax is 129 ng/mL and the Tmax is 7.52 h. Further, in data set [3] (Fed), the AUC(0-inf) turned out to be 10800 ng·h/mL, the Cmax was found to be 887 ng/mL and the Tmax came out at 4.88 h. This molecule also showed a half-life in data set [3] (T1/2, Fasting) of 1570 min. The molecule also had a half-life in data set [3] (T1/2, Fed) of 1110 min. The “Adverse events reported (total)” value in data set [3] (minor, occurred in both fed and fasting conditions, 23 subjects, single 400 mg oral doses) came to 35. Moreover, the Tolerability entry in data set [3] (single 400 mg oral dose, fed and fasting, healthy males) is recorded as “well tolerated”.

`O=C1NC(=O)C(c2ccccc2)(c2ccccc2)C(=O)N1` [DPB, 5,5-diphenyl barbituric acid]: the “Anticonvulsant activity against electroshock and chemoconvulsive seizures” value in data set [1] is “anticonvulsant properties”. In addition, in data set [3], the “Rate and extent of absorption” value is listed as “increased”; the “AUC0-t Ratio (Fasting/Fed)” value is 65.3% and 65.28%; the “T1/2 Ratio (Fasting/Fed)” value is listed as 111.62%; the “Tmax Ratio (Fasting/Fed)” value came out at 113.50%. Also, in data set [3], the “Cmax Ratio (Fasting/Fed)” value is 62.9% and 62.93%; the “AUC0-∞ Ratio (Fasting/Fed)” value came to 68.04%. The molecule further gave an AUC(0-t) in data set [3] (Fasting, healthy subjects) of 143000 ng·h/mL. This molecule also displayed an AUC(0-t) in data set [3] (setting [5]) of 219000 ng·h/mL. In addition, in data set [3] (Fasting), the AUC(0-inf) was determined as 185000 ng·h/mL, the Cmax came to 1750 ng/mL and the Tmax was 54.8 h. Besides, in data set [3] (Fed), the AUC(0-inf) stood at 271000 ng·h/mL, the Cmax is 2790 ng/mL and the Tmax is 48.3 h. In data set [3] (T1/2, Fasting), this molecule had a half-life of 2580 min. Further, the half-life in data set [3] (T1/2, Fed) was 2310 min.

Consider `COCN1C(=O)NC(=O)C(c2ccccc2)(c2ccccc2)C1=O` [MMMDPB, monomethoxymethyl-5,5-diphenyl barbituric acid], for which, in data set [3], the “Rate and extent of absorption” value is reported as “increased”; the “AUC0-t Ratio (Fasting/Fed)” value was 36.6% and 36.56%; the “T1/2 Ratio (Fasting/Fed)” value worked out at 165.33%; the “Tmax Ratio (Fasting/Fed)” value worked out at 229.02%. Also, in data set [3], the “Cmax Ratio (Fasting/Fed)” value was 31.9% and 31.86%; the “AUC0-∞ Ratio (Fasting/Fed)” value was found to be 44.86%. This molecule displayed an AUC(0-t) in data set [3] (Fasting, healthy subjects) of 36400 ng·h/mL. Also, the AUC(0-t) in data set [3] (setting [5]) is 99500 ng·h/mL. In addition, in data set [3] (Fasting), the AUC(0-inf) amounted to 54000 ng·h/mL, the Cmax is 898 ng/mL and the Tmax is 20.2 h. For the same molecule, in data set [3] (Fed), the AUC(0-inf) stood at 120000 ng·h/mL, the Cmax was 2820 ng/mL and the Tmax turned out to be 8.83 h. For the same molecule, in data set [3] (T1/2, Fasting), the half-life was 1610 min. Also, in data set [3] (T1/2, Fed), the half-life was 973 min.

On to `CCC1(c2ccccc2)C(=O)NC(=O)NC1=O` [phenobarbital], for which the “Serum and brain levels on administration with food” value in data set [4] is recorded as “significantly decreased”.
